The record followed here is ChEMBL document CHEMBL2062461 (Eur J Med Chem, 2012).

The target of experiment [1] is T1, Acetylcholinesterase (Homo sapiens, UniProt P22303).
Description: Inhibition of human recombinant AChE assessed as dissociation constant for enzyme-inhibitor-substrate complex using acetylthiocholine substrate preincubated for 5 mins before substrate addition by Ellman's method
In experiment [2] the target is T1, Acetylcholinesterase. This is another data set of the same source.
Description: Inhibition of human recombinant AChE assessed as dissociation constant for enzyme-inhibitor complex using acetylthiocholine substrate preincubated for 5 mins before substrate addition by Ellman's method
In experiment [3] the target is T1, Acetylcholinesterase. This is another data set of the same source.
Description: Inhibition of human recombinant AChE using acetylthiocholine substrate preincubated for 5 mins before substrate addition by Ellman's method
In a further experiment the target is Cholinesterase (Homo sapiens, UniProt P06276).
Cholinesterase, sequence (P06276 whole entry): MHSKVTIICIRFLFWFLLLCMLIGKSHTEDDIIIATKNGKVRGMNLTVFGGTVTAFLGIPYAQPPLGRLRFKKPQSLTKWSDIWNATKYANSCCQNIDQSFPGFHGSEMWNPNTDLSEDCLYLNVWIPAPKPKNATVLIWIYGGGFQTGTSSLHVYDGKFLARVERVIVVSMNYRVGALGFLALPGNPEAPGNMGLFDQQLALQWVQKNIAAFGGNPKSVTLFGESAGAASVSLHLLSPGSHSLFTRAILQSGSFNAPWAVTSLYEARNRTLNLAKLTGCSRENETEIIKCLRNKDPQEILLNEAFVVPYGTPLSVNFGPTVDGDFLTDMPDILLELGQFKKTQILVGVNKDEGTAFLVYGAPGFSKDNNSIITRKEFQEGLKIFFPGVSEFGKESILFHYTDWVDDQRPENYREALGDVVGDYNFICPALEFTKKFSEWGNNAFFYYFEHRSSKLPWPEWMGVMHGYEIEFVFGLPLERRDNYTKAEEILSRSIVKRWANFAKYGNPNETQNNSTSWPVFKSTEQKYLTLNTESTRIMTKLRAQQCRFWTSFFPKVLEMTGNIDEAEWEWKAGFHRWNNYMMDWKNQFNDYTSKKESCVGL

T1 sequence (P22303 whole entry): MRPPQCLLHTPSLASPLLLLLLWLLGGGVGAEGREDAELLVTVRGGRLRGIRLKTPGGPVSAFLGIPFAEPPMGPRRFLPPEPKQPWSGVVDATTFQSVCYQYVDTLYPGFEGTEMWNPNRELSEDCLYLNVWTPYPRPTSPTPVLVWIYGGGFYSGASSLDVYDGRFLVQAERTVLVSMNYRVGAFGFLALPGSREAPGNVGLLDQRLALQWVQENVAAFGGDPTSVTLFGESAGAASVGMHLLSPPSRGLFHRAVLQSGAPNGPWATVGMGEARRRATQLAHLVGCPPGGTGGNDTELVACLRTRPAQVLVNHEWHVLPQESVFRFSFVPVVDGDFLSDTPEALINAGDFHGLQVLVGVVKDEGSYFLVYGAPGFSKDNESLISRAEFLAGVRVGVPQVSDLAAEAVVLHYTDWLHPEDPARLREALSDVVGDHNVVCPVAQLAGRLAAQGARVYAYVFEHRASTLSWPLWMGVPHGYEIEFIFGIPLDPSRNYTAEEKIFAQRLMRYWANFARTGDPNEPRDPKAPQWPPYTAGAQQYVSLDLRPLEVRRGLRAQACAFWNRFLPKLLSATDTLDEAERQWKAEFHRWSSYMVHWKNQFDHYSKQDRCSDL

As for `O=C(CCN1CCCCC1)N1CCN(CCNc2c3c(nc4ccccc24)CCCC3)CC1`, the inhibitory constant (Ki) at Acetylcholinesterase [1] stood at 76.1 nM; on Acetylcholinesterase [2] it was 16.8 nM. In addition, the figures for the IC50 at Acetylcholinesterase [3] and against Cholinesterase were 51.7 nM and 77.8 nM, respectively.

`CN(CCC(=O)N1CCN(CCNc2c3c(nc4ccccc24)CCCC3)CC1)C1CCCCC1`: the Ki was 0.318 nM at Acetylcholinesterase [1] and 0.38 nM at Acetylcholinesterase [2]. For the same molecule, the values for the IC50 on Acetylcholinesterase [3] and at Cholinesterase were 14.9 nM and 63.7 nM, respectively.

As for `CCN(CCC(=O)N1CCN(CCNc2c3c(nc4ccccc24)CCCC3)CC1)C1CCCCC1`, the inhibitory constant (Ki) on Acetylcholinesterase [1] is 3.73 nM; on Acetylcholinesterase [2], 1.35 nM. Further, the 50% inhibitory concentration (IC50) on Acetylcholinesterase [3] was 4.97 nM; at Cholinesterase, 41.2 nM.

In the case of `CN(CCC(=O)N1CCN(CCNc2c3c(nc4ccccc24)CCCC3)CC1)c1ccccc1`, the inhibitory constant (Ki) is 85.5 nM at Acetylcholinesterase [1] and 13.7 nM at Acetylcholinesterase [2]. Moreover, the IC50 amounted to 70.3 nM against Acetylcholinesterase [3] and 33.7 nM against Cholinesterase.

Consider `CN(CCCN1CCN(CCNc2c3c(nc4ccccc24)CCCC3)CC1)C1CCCCC1`, for which the inhibition constant Ki is 47.6 nM on Acetylcholinesterase [1] and 10.3 nM at Acetylcholinesterase [2]. For the same molecule, the concentration for half-maximal inhibition (IC50) amounted to 40.7 nM against Acetylcholinesterase [3] and 137 nM on Cholinesterase.

As for `CCN(CCCN1CCN(CCNc2c3c(nc4ccccc24)CCCC3)CC1)C1CCCCC1`, the IC50 was 194 nM at Acetylcholinesterase [3] and 126 nM at Cholinesterase.

With `CN(CCCN1CCN(CCNc2c3c(nc4ccccc24)CCCC3)CC1)c1ccccc1`, the Ki came to 24.7 nM on Acetylcholinesterase [1] and 80 nM on Acetylcholinesterase [2]. For the same molecule, the IC50 at Acetylcholinesterase [3] stood at 84.8 nM; against Cholinesterase, 211 nM.

For `O=C(CCNCCNc1c2c(nc3ccccc13)CCCC2)N1CCN(CCNc2c3c(nc4ccccc24)CCCC3)CC1`, the IC50 amounted to 4.49 nM against Acetylcholinesterase [3] and 1520 nM against Cholinesterase.

For orientation: Ki means a dissociation constant, usually derived from enzyme kinetics or from competition with a known ligand. By IC50 is commonly meant the concentration that inhibits the measured activity by half. Read a low IC50 as higher potency.
